Values after ≈ are worked out from the molar mass of the structure shown.
Columns and labels:
Assay type in all cases: functional
Escherichia coli = experiment: Antibacterial activity against Escherichia coli ATCC 12701 assessed as bacterial clearance incubated for 6 to 24 hrs by microbroth dilution method; settings: time 6-24 hrs
Pseudomonas aeruginosa = experiment: Antibacterial activity against Pseudomonas aeruginosa ATCC 10145 assessed as bacterial clearance incubated for 6 to 24 hrs by microbroth dilution method; settings: time 6-24 hrs
Staphylococcus aureus = experiment: Antibacterial activity against Staphylococcus aureus ATCC 6538 assessed as bacterial clearance incubated for 6 to 24 hrs by microbroth dilution method; settings: time 6-24 hrs
[1] = Antiinflammatory activity in […] cells assessed as reduction in LPS-induced IL-6 release at 10 uM pre incubated for 1 hr followed by LPS stimulation and measured after 30 mins by ELISA
[2] = Antiinflammatory activity in […] cells assessed as reduction in LPS-induced TNF-alpha release at 10 uM pre incubated for 1 hr followed by LPS stimulation and measured after 30 mins by ELISA
[3] = Antiinflammatory activity in […] cells assessed as reduction in LPS-induced NOX release at 10 uM pre incubated for 1 hr followed by LPS stimulation and measured after 30 mins by ELISA

For GENTAMICIN, the MIC=>80 (Escherichia coli) was 0.99 µg/mL, the MIC=>80 (Pseudomonas aeruginosa) was 7.94 µg/mL and the MIC=>80 (Staphylococcus aureus) was 0.5 µg/mL.
Work on `Cc1ccc(-c2nc(NCCOCCOCCN)nc(NCC3CCCO3)n2)cc1` (configuration not stated) yielded an inhibition at 10 µM [1] of 50%, an inhibition at 10 µM [2] of 50.1% and an inhibition at 10 µM [3] of 40%.
With `CC(C)(C)c1ccc(-c2nc(NCCOCCOCCN)nc(NCc3cccc(F)c3)n2)cc1` the inhibition at 10 µM [1] was 46.7%, the inhibition at 10 µM [2] was 35.6% and the inhibition at 10 µM [3] was 38.5%.
With `CC(C)(C)c1ccc(-c2nc(NCCOCCOCCN)nc(NCc3cccc(Cl)c3)n2)cc1` the inhibition at 10 µM [1] was 43.3%, the inhibition at 10 µM [2] was 50.1% and the inhibition at 10 µM [3] was 41.5%.
`CC(C)(C)c1ccc(-c2nc(NCCOCCN)nc(NCC3CCCO3)n2)cc1` (configuration not stated) showed an inhibition at 10 µM [1] of 22.1%, an inhibition at 10 µM [2] of 13.3% and an inhibition at 10 µM [3] of 33.1%.
For `NCCOCCOCCNc1nc(NCC2CCCO2)nc(-c2ccccc2)n1` (configuration not stated), the inhibition at 10 µM [1] was 26.7%, the inhibition at 10 µM [2] was 10.6% and the inhibition at 10 µM [3] was 30.7%.
Work on `CC(C)(C)c1ccc(-c2nc(NCCOCCOCCN)nc(NCc3ccc(Cl)cc3)n2)cc1` yielded an inhibition at 10 µM [1] of 50%, an inhibition at 10 µM [2] of 15.2% and an inhibition at 10 µM [3] of 38.4%.
Work on `CC(C)(C)c1ccc(-c2nc(NCCOCCOCCN)nc(NCC3CCCCO3)n2)cc1` (configuration not stated) yielded an inhibition at 10 µM [1] of 56.7%, an inhibition at 10 µM [2] of 10.4% and an inhibition at 10 µM [3] of 46.1%.
`NCCOCCOCCNc1nc(NCC2CCCO2)nc(-c2ccc(F)cc2)n1` (configuration not stated) showed an inhibition at 10 µM [1] of 33.4%, an inhibition at 10 µM [2] of 15.1% and an inhibition at 10 µM [3] of 23%.
For `Cc1onc(-c2ccccc2)c1C(=O)N[C@@H]1C(=O)N2[C@@H]1SC(C)(C)[C@@H]2C(=O)O` [OXACILLIN], the MIC80 (Escherichia coli) was 0.25 µg/mL (≈ 0.623 µM), the MIC80 (Pseudomonas aeruginosa) was 1.98 µg/mL (≈ 4.93 µM) and the MIC80 (Staphylococcus aureus) was 0.06 µg/mL (≈ 0.149 µM).
Compound `CC(C)(C)c1ccc(-c2nc(NCCOCCOCCN)nc(NCC3CCCCC3)n2)cc1` has an inhibition at 10 µM [1] of 24.7%, an inhibition at 10 µM [2] of 36.4% and an inhibition at 10 µM [3] of 21.5%.
In the case of `CC(C)(C)c1ccc(-c2nc(NCCOCCOCCN)nc(NCc3ccccc3)n2)cc1`, the inhibition at 10 µM [1] is reported as 50%, the inhibition at 10 µM [2] is reported as 10.7% and the inhibition at 10 µM [3] is reported as 38.5%.
Work on `CC(C)(C)c1ccc(-c2nc(NCCOCCOCCN)nc(NCc3ccco3)n2)cc1` yielded an inhibition at 10 µM [1] of 40.1%, an inhibition at 10 µM [2] of 15.6% and an inhibition at 10 µM [3] of 44.7%.
For `Cc1ccc(CNc2nc(NCCOCCOCCN)nc(-c3ccc(C(C)(C)C)cc3)n2)cc1`, the inhibition at 10 µM [1] was 33.3%, the inhibition at 10 µM [2] was 35.9% and the inhibition at 10 µM [3] was 15.3%.
